From patent US20180072675A1, “ANTIMICROBIAL PYRIDINOHYDRAZIDE AND HYDRAZOMETHYLPYRIDINE-BASED AGENTS” (Board of Supervisors of Louisiana State University and …, priority 2015, published 2018)
≈ marks a conversion by molar mass, not a printed value. Entries after “also recorded” stand apart in the source; their conditions may differ. Where two headings read alike, the source gives them in different places.

Key:
Format in all cases: cell-based, Candida albicans
[1] = system: C. albicans clinical isolate 1 (TW1); test: MIC80 fungal growth inhibition, clinical isolate TW1; conditions: for MIC80: Candida albicans, read-out: MIC80 TW1
Procedure: (§1) The antifungal activity of the pyridinohydrazide and hydrazomethylpyridine derivatives described in the s were evaluated in vitro using Candida albicans (ATCC Accession No. 10231) and Candida glabrata (ATCC Accession No. 48435). In addition, the compounds were evaluated for activity against two previously-described clinical isolates of C. albicans known to have developed azole-resistance. These isolates were obtained over a two year period from a single AIDS patient and the development of the azole-resistance mechanisms have been extensively characterized (White T C. Antimicrob. Agents Chemother. (1997) 41: 1482-1487). MIC assays were performed on the clinical isolates 1 and 17 (annotated TW1 and TW17, respectively), where isolate 1 was used as an azole-susceptible control and isolate 17 was considered azole-resistant. All assays were done in accordance with NCCLS reference documents (Clinical Laboratory and Standards Institute. Reference method for Broth Dilution Antifungal Susceptibility Testing of Yeasts: Approved Standard. M27-A3 2010; 28). The results of these screenings are summarized in Tables 1-9 (Examples 20-27) as the minimum concentrations that inhibited more than 80% of fungal growth (MIC80) as compared to positive controls containing 1% DMSO. Assays were performed in HEPES-buffered RPMI-1640 media. All MIC screens used a visual scoring method as opposed to spectroscopic analysis, due to the altered absorbance spectra of many of the compounds.

[2] = system: C. albicans clinical isolate 17 (TW17); test: MIC80 fungal growth inhibition, clinical isolate TW17; conditions: for MIC80: Candida albicans, read-out: MIC80 TW17
Procedure: as §1

[3] = system: Candida strain TW17; test: Time-kill assay; conditions: for Cidal vs Static: four times the MIC for TW17, 48 h; for colonies observed in time-kill assay: after 24 h
Procedure: FIG. 9 illustrates time-kill assays, for representative analogs that were active against the azole-resistant TW17, to determine the cidal or static nature of the analog tested. 100 μl of each sample was spread onto YM agar plates with a sterile bent spreading rod. Plates were incubated at 35° C. overnight and colonies were then counted on each plate.
One of the objectives of this study was to determine the cidal or static nature of the analogs that were active against such as TW17, the azole-resistant clinical isolate. Azoles affect Candida spp. by inhibiting ergosterol biosynthesis, and ultimately prevent their reproduction. This effect has led to the classification of azoles as fungistats. Determining the fungistatic or fungicidal nature of the synthesized compounds of the present disclosure allows a comparison to azoles, in addition to improving the understanding of how the structural motifs might lend toward an alternate mechanism of action. Therefore, time-kill assays were performed using the representative analogs that were active against the azole-resistant TW17 at concentrations at or below 8 μg/mL.
Solid drugs were dissolved in DMSO to a concentration of 10 mg/ml. This stock solution was then further diluted in water to the desired experimental concentration, determined to be four times that of the MIC for the Candida strain TW17 (as reported in the Tables).
Individual colonies of TW17 were suspended in 5 ml of sterile water and adjusted to achieve a McFarland reading between 0.08 and 0.12. The inoculum was then further diluted in sterile water at a ratio of 1:100. Three […] tissue culture tubes were prepared by combining 2.5 ml of above diluted inoculum, 21.7 ml of HEPES buffered RPMI-1640 media, and 800 μl of experimental drug dilution. A “Growth Control” tube was prepared by combining 2.5 ml of inoculum, 21.7 HEPES buffered RPMI-1640 media, and 800 μl of water-DMSO solution equal to the DMSO concentration of the experimental drug dilution. A “Sterile Control” tube was prepared by combining 24.2 ml of HEPES-buffered RPMI-1640 media and 800 μl of water-DMSO solution as in the “Growth Control”. All tubes were incubated for 48 hours at 35° C., 50 rpm. 500 μl samples were taken from the tubes at time points of predetermined intervals during this incubation.
Time points for the “Kill-Curve” and “Growth Control” tubes were taken at 0, 1, 2, 4, 6, 8, 24, and 48 h after the start of incubation. Time points for “Sterile Control” were taken at 0 and 48 hours. Each time point sample was serially diluted 1:10 in sterile 0.9% NaCl solution up to 5 times. 100 μl of each sample was spread onto YM agar plates with a sterile bent spreading rod. Plates were incubated at 35° C. overnight and colonies were then counted on each plate. Colonies on plates from diluted time points were used to estimate uncountable undiluted samples. The number of colonies in undiluted samples was estimated to be 10^n times greater than the diluted sample, where n was the number of dilutions made.

[4] = Azole-susceptible, >80% growth inhibition, visual scoring
[5] = Azole-resistant, >80% growth inhibition, visual scoring

| Structure (SMILES) | MIC80 [1, 4] | MIC80 [2, 5] | Cidal vs Static [3] | MIC80 TW1 [1, 4] | MIC80 TW17 [2, 5] | colonies observed in time-kill assay [3] | MIC80 [1] | MIC80 [2] |
| --- | --- | --- | --- | --- | --- | --- | --- | --- |
| O=C(NN=Cc1cc([N+](=O)[O-])ccc1O)c1cccnc1 [AR12] |  |  | Static | 8 µg/mL (≈ 27.9 µM) | 8 µg/mL (≈ 27.9 µM) |  |  |  |
| O=C(NN=Cc1cc([N+](=O)[O-])ccc1O)c1ccncc1 [AR18] |  |  | Static | 8 µg/mL (≈ 27.9 µM) | 8 µg/mL (≈ 27.9 µM) |  |  |  |
| C(=N\Nc1ccccc1)/c1ccncc1 [AR48] |  |  | fungicidal; also recorded: Cidal |  |  | no observed colonies | 16 µg/mL (≈ 81.1 µM) | 8 µg/mL (≈ 40.6 µM) |

More lines, main results first:

| MIC80 [1, 4] | MIC80 [2, 5] | Structure (SMILES) | Cidal vs Static [3] | MIC80 TW1 [1, 4] | MIC80 TW17 [2, 5] | colonies observed in time-kill assay [3] | MIC80 [1] | MIC80 [2] |
| --- | --- | --- | --- | --- | --- | --- | --- | --- |
| 4 µg/mL (≈ 15.7 µM) | 8 µg/mL (≈ 31.3 µM) | Cc1ccc(O)c(/C=N/NC(=O)c2ccccn2)c1 [AR2, (E)-N′-(2-Hydroxy-5-methylbenzylidene)picolinohydrazide] | Static |  |  |  |  |  |
| 8 µg/mL (≈ 23.8 µM) | 8 µg/mL (≈ 23.8 µM) | O=C(N/N=C/c1cc(Br)ccc1O)c1ccc[n+]([O-])c1 [AR27] | fungistatic; also recorded: Static |  |  |  |  |  |
| 16 µg/mL (≈ 81.1 µM) | 8 µg/mL (≈ 40.6 µM) | C(=N\Nc1ccccc1)/c1cccnc1 [AR44] | fungicidal; also recorded: Cidal |  |  | no observed colonies |  |  |
